The text below walks through data of US6558686B1, “Method of coating medical devices with a combination of antiseptics and antiseptic coating therefor” (Baylor College of Medicine, priority 1995, dated 2003).

One data set deals with P. aerug. The data set can be described thus: Zones of inhibition, single-layer coated stainless steel cylinders (Example 4). It is filed as cell-based. The following applies: single-layer coated stainless steel cylinder, 18-24 hours at 37° C.
The test system of data set [1] is Candida albicans. Described as above. The following applies: single-layer coated stainless steel cylinder, 18-24 hours at 37° C. Type of data set: cell-based.
Experimental: (§3) Stainless steel cylinders (0.5×2″) were dipped in one of the three antiseptic coating solutions for 1 minute at 50° C. Devices were allowed to dry for at least 4 hours, then placed into agar plates that had been freshly overlaid with one of the microorganisms shown below in Table 4. After 18-24 hours of incubation at 37° C., the following measurements of zones of inhibition were recorded.
Data set [2] has as its system S. epidermidis. Described as above. The following applies: single-layer coated stainless steel cylinder, 18-24 hours at 37° C.
Experimental: as §3
For data set [3], the system named is Candida albicans. The data set is described as follows: Zones of inhibition, coated stainless steel cylinders on agar (Example 1). It is filed as cell-based. The following applies: coated stainless steel cylinder, 18-24 hours at 37° C. The procedure:
(§1) Antiseptic coatings were applied to each of four stainless steel cylinders (0.5″ diameter×2″ length), using each of the above four antiseptic solutions, by dipping each cylinder for 1 minute at 50° C. in the respective solution.

In the next data set the test system is Pseud. aeruginosa. The description is as above. It is filed as cell-based, Pseudomonas aeruginosa. The following applies: coated stainless steel cylinder, 18-24 hours at 37° C. The procedure: as §1
The conditions of data set [4]: cited from earlier work.
For a further data set, the system named is Staph. epidermidis. The data set can be described thus: Zones of inhibition, coated stainless steel cylinders on agar (Example 1). Type of data set: cell-based, Staphylococcus epidermidis. The following applies: coated stainless steel cylinder, 18-24 hours at 37° C. The protocol: as §1
A further data set relates to Pseudomonas. The data set is described as follows: Antimicrobial activity of coated silicone urinary catheters, initial and after 1 week in urine (Example 5). The following applies: for Pseudomonas 1 week (antimicrobial activity of coated catheter): catheter segments incubated in urine for 1 week at 37° C.; for Pseudomonas Initial (antimicrobial activity of coated catheter): silicone urinary catheter. It is filed as cell-based, Pseudomonas aeruginosa. The protocol:
(§2) A first antiseptic solution was formed by dissolving chloroxylenol (200 mg/ml) in an 85:15 solution of butyl acetate: methanol that has NaOH (5 mg/ml of methanol). A second antiseptic solution was formed by dissolving thymol (150 mg/ml) in an 85:15 solution of butyl acetate: methanol that has NaOH (5 mg/ml of methanol). A third antiseptic solution was formed by dissolving chloroxylenol (200 mg/ml) and thymol (150 mg/ml) in an 85:15 solution of butyl acetate: methanol that has NaOH (5 mg/ml of methanol). Eighteen-french silicone urinary catheters were dipped in one of the above coating solutions for 1 hour at 45° C. The catheters were allowed to dry overnight then rinsed.

In data set [5] the test system is S. epidermidis. The data set is described as above. It is filed as cell-based. The following applies: for S. epidermidis 1 week (antimicrobial activity of coated catheter): catheter segments incubated in urine for 1 week at 37° C.; for S. epidermidis Initial (antimicrobial activity of coated catheter): silicone urinary catheter. The procedure:
as §2

The next data set relates to Enterococcus. The description is as above. The following applies: for Enterococcus 1 week (antimicrobial activity of coated catheter): catheter segments incubated in urine for 1 week at 37° C.; for Enterococcus Initial (antimicrobial activity of coated catheter): silicone urinary catheter. Type of data set: cell-based. The procedure:
as §2

For another data set, the system named is E. coli. Described as above. It is filed as cell-based. The following applies: for E. coli 1 week (antimicrobial activity of coated catheter): catheter segments incubated in urine for 1 week at 37° C.; for E. coli Initial (antimicrobial activity of coated catheter): silicone urinary catheter. The protocol:
as §2

Data set [6] has as its system Candida albicans. The data set is described as above. Type of data set: cell-based. The following applies: for Candida albicans 1 week (antimicrobial activity of coated catheter): catheter segments incubated in urine for 1 week at 37° C.; for Candida albicans Initial (antimicrobial activity of coated catheter): silicone urinary catheter. The procedure: as §2

Experimental for P. aerug: as §3

With `[H]/N=C(\N/C(=N/[H])NCCCCCCNC(=N)NC(=N)Nc1ccc(Cl)cc1)Nc1ccc(Cl)cc1` [Chlorhexidine], the “Zones of inhibition P. aerug” value in the data set on P. aerug is recorded as 25 m.m. In addition, the “Zones of inhibition Candida albicans” value in the data set on Candida albicans [1] turned out to be 28 m.m; in the data set on Candida albicans [3], 26 m.m. The “Zones of inhibition S. epidermidis” value with S. epidermidis [2] turned out to be 30 m.m. Further, the “Zones of inhibition Pseud. aeruginosa” value with Pseud. aeruginosa is on record as 28 m.m. Moreover, the “Solubility in acetic acid” value in data set [4] (acetic acid) is on record as “soluble”. Also, the “Solubility in formic acid” value in [4] (formic acid) is “soluble”. In addition, in [4] (organic solvents), the “Solubility in organic solvents” value is “generally not soluble”. For the same compound, in the data set on Staph. epidermidis, the “Zones of inhibition Staph. epidermidis” value is reported as 31 m.m.
`Cc1cc(O)cc(C)c1Cl` [Chloroxylenol, 4-chloro, 3,5-dimethyl phenol]: in the data set with Pseudomonas, the “Pseudomonas 1 week (antimicrobial activity of coated catheter)” value was determined as 0 and the “Pseudomonas Initial (antimicrobial activity of coated catheter)” value is 10. Also, in the data set with S. epidermidis [5], the “S. epidermidis 1 week (antimicrobial activity of coated catheter)” value amounted to 20 and the “S. epidermidis Initial (antimicrobial activity of coated catheter)” value turned out to be 25. Besides, in the data set with Enterococcus, the “Enterococcus 1 week (antimicrobial activity of coated catheter)” value is reported as 10 and the “Enterococcus Initial (antimicrobial activity of coated catheter)” value was 13. Besides, in the data set with E. coli, the “E. coli 1 week (antimicrobial activity of coated catheter)” value was determined as 11 and the “E. coli Initial (antimicrobial activity of coated catheter)” value is reported as 15. In addition, in the data set with Candida albicans [6], the “Candida albicans 1 week (antimicrobial activity of coated catheter)” value was determined as 26 and the “Candida albicans Initial (antimicrobial activity of coated catheter)” value is given as 30.
Regarding `Cc1ccc(C(C)C)c(O)c1` [Thymol, 5-methyl-2 isopropyl phenol], the “Zones of inhibition Candida albicans” value with Candida albicans [3] worked out at 14 m.m. For the same compound, in the data set on Pseudomonas, the “Pseudomonas 1 week (antimicrobial activity of coated catheter)” value is 0 and the “Pseudomonas Initial (antimicrobial activity of coated catheter)” value came out at 11. The “Zones of inhibition Pseud. aeruginosa” value with Pseud. aeruginosa worked out at 18 m.m. In the data set with S. epidermidis [5], the “S. epidermidis 1 week (antimicrobial activity of coated catheter)” value is on record as 30 and the “S. epidermidis Initial (antimicrobial activity of coated catheter)” value was determined as 38. Moreover, in the data set on Enterococcus, the “Enterococcus 1 week (antimicrobial activity of coated catheter)” value is 17 and the “Enterococcus Initial (antimicrobial activity of coated catheter)” value is 28. In the data set on E. coli, the “E. coli 1 week (antimicrobial activity of coated catheter)” value came to 28 and the “E. coli Initial (antimicrobial activity of coated catheter)” value is listed as 35. For the same compound, in the data set with Candida albicans [6], the “Candida albicans 1 week (antimicrobial activity of coated catheter)” value was 38 and the “Candida albicans Initial (antimicrobial activity of coated catheter)” value was 60. Moreover, the “Zones of inhibition Staph. epidermidis” value with Staph. epidermidis stood at 23 m.m.
